{
  "source": "ChEMBL document CHEMBL1133560",
  "about": "“Design and synthesis of new orally active nonpeptidic inhibitors of human neutrophil elastase” (J Med Chem, 2000)",
  "key": {"[1]": {"assay": "(§1) Effective dose determined in an animal model which lasted for more than 8 h", "assay_type": "functional"}, "[2]": {"assay": "Percent oral bioavailability evaluated in rat", "assay_type": "ADME, organism-based", "conditions": "in vivo"}, "[3]": {"assay": "Percent oral bioavailability evaluated in monkey", "assay_type": "ADME, organism-based", "conditions": "cercopithecidae, in vivo"}, "[4]": {"assay": "Percent oral bioavailability evaluated in dog", "assay_type": "ADME, organism-based, Canis lupus familiaris", "conditions": "in vivo"}, "[5]": {"assay": "as §1", "assay_type": "ADME"}},
  "data": [
    {"smiles": "CC(C)C(NC(=O)Cn1c(-c2ccccc2)ncc(N)c1=O)C(=O)c1nnc(C(C)(C)C)o1", "note": "(stereo not given)", "values": [
      {"measurement": "ED50", "setting": "[1]", "result": 1.4, "unit": "mg/kg"},
      {"measurement": "bioavailability", "setting": "[2]", "result": 51, "unit": "%"},
      {"measurement": "bioavailability", "setting": "[3]", "result": 18, "unit": "%"},
      {"measurement": "bioavailability", "setting": "[4]", "result": 31, "unit": "%"}
    ]},
    {"smiles": "CC(C)C(NC(=O)Cn1c(-c2ccc(F)cc2)ncc(N)c1=O)C(=O)C(F)(F)F", "note": "(stereo not given)", "values": [
      {"measurement": "ED50", "setting": "[5]", "result": 7.5, "unit": "mg/kg"}
    ]}
  ]
}
